Test results taken from patent publication US20140147434A1, “NCoR1 is a Physiological Modulator of Muscle Mass and Oxidative Function” (ECOLE POLYTECHNIQUE FEDERALE DE LAUSANNE (EPFL), priority 2011, published 2014).

What was measured:
Ucp3 promoter = experiment: ChIP of endogenous NCoR1 recruitment to the Ucp3 promoter PPREs in C2C12 myotubes; assay type: cell-based, mouse; details: 6 hr after addition of 100 nM GW501516
Text: (A, B, E, F, and H) NCoR1 recruitment to the PPREs on mouse Ucp3 promoter and to the ERR-RE on human and mouse Pdk4 promoter determined by ChIP in NIH-3T3 cells transfected with an NCoR1-FLAG vector or in C2C12 myotubes. A schematic of the promoters of the Ucp3 (A) and Pdk4 (E) genes and the sequence alignment of the mouse, rat and human Pdk4 promoter is also shown to highlight the conservation of the NR1/2 (or ERR-RE) (E). Boxes indicate putative PPREs in the Ucp3 and the NR1/2, IRS, and Sp1 in the Pdk4 promoter. ChIP experiments for the Ucp3 promoter were performed in C2C12 myotubes both before and 6 hr after addition of a PPARIβ/δ (100 nM GW501516); not detected. ChIP experiments in HEK293 cells transfected with FLAG-NCoR1 and HA-ERRα vector (H). (C and G) Binding of acetylated histone 4 (H4) to the PPREs on the Ucp3 and to the NR1/2 on the Pdk4 promoters in ChIP assays, using either immortalized NCoR1^L2/L2MEFs, infected with an adenovirus either expressing GFP or Cre recombinase, or C2C12 myotubes infected with the Ad-shNCoR1 virus. Representative data is shown from 3 experiments. (D) Interaction between PPARβ/δ and NCoR1 determined by in vitro co-IP experiments from HEK293 cells, in which NCoR1-FLAG and/or V5-PPARβ/δ are expressed. […] Data are expressed as mean±SEM. […]

NCoR1 [1] = experiment: NCoR1 mRNA and protein in MEFs cultured with oleic acid; assay type: cell-based, mouse; details: oleic acid added to the medium (0.03 mM, 48 hr), independently of the glucose concentration
Procedure: (A-C) Localization of NCoR1 protein was determined either by immunofluorescence and quantified (A and B) and by western blot (C). 293T cells grown without (−) or with (+) 1 µM insulin for 1 hr were stained by DAPI or anti-NCoR1 (A). Quantification of nuclear NCoR1 is shown in (B). Nuclear and cytosolic fractions were separated from FLAG-NCoR1 transfected 293T cells after a 1 hr-stimulation without (−) or with 1 μM insulin (+) and protein levels were determined by western blotting (C). (D) mRNA levels of NCoRs and its target genes determined by qRT-PCR in MEFs cultured for 24 hr in 5 or 25 mM glucose (n=6). (E) NCoR1 protein was determined by western blotting from MEFs cultured for 24 hr in 5 or 25 mM glucose. (F) NCoR1 and SMRT mRNA was determined in MEFs cultured for 48 hr in 0, 5, and 25 mM glucose. (G) NCoR1 protein was determined by western blotting from MEFs cultured for 24 hrs in 0, 5, or 25 mM glucose. […] (I) NCoR1 protein determined by western blotting from MEFs cultured as indicated in (G). (J) NCoR1 mRNA measured by qRT-PCR in muscles of resting mice or 3 hrs after an endurance run (14-wk old; n=5), in mice that were fed for 20 wks either with HFD or CD (28-wk old; n=8), in mice that were fasted or fed for 16 hrs (14-wk old; n=10), and in 6-month or 2-year old mice (n=10). […] Data are expressed as mean±SEM. […]

SMRT = SMRT mRNA in MEFs cultured with oleic acid; assay type: cell-based, mouse; details: with OA in the absence of glucose
Procedure: The mRNA expression levels were measured in cells and tissues using qRT-PCR (Lagouge et al., 2006).

NCoR1 [2] = experiment: NCoR1 localization by immunofluorescence and subcellular fractionation in 293T cells; assay type: cell-based; details: one hour after stimulation with 1 μM insulin
Procedure: (A-C) Localization of NCoR1 protein was determined either by immunofluorescence and quantified (A and B) and by western blot (C). 293T cells grown without (−) or with (+) 1 µM insulin for 1 hr were stained by DAPI or anti-NCoR1 (A). Quantification of nuclear NCoR1 is shown in (B). Nuclear and cytosolic fractions were separated from FLAG-NCoR1 transfected 293T cells after a 1 hr-stimulation without (−) or with 1 μM insulin (+) and protein levels were determined by western blotting (C). (D) mRNA levels of NCoRs and its target genes determined by qRT-PCR in MEFs cultured for 24 hr in 5 or 25 mM glucose (n=6). (E) NCoR1 protein was determined by western blotting from MEFs cultured for 24 hr in 5 or 25 mM glucose. (F) NCoR1 and SMRT mRNA was determined in MEFs cultured for 48 hr in 0, 5, and 25 mM glucose. (G) NCoR1 protein was determined by western blotting from MEFs cultured for 24 hrs in 0, 5, or 25 mM glucose. […] (I) NCoR1 protein determined by western blotting from MEFs cultured as indicated in (G). (J) NCoR1 mRNA measured by qRT-PCR in muscles of resting mice or 3 hrs after an endurance run (14-wk old; n=5), in mice that were fed for 20 wks either with HFD or CD (28-wk old; n=8), in mice that were fasted or fed for 16 hrs (14-wk old; n=10), and in 6-month or 2-year old mice (n=10). […] Data are expressed as mean±SEM.
(A) Localization of NCoR1 is determined by the immunofluorescence experiments. […]

## Cc1cc(SCc2sc(-c3ccc(C(F)(F)F)cc3)nc2C)ccc1OCC(=O)O [GW501516]
Ucp3 promoter
  recruitment of NCoR1 to the Ucp3 promoter: robustly inhibited

## CCCCCCCC/C=C\CCCCCCCC(=O)O [oleic acid]
NCoR1 [1]
  NCoR1 levels: decreased
SMRT
  SMRT mRNA levels: only a small difference

## insulin
NCoR1 [2]
  amounts of endogenous NCoR1 or transfected FLAG-NCoR1 detected in nuclei: higher amounts
